# In paper PMC3726007 (Journal of medicinal chemistry, 2009):
# “Also recorded” adds a separate entry of the source. Structures can show the parent of a compound that is named as a salt.
# Tests used:
# [1] = tested on: α4β2* nicotinic acetylcholine receptors (nAChRs); details: cited from earlier work
# [2] = tested on: methamphetamine self-administration; details: animal models; cited from earlier work
# VMAT2 = VMAT2 (Rattus norvegicus, UniProt Q01827); experiment: [3H]-DA uptake inhibition assay in isolated synaptic vesicles; details: for fold more potent in inhibiting [3H]-DA uptake than in binding to the DTBZ binding site: uptake vs DTBZ binding; for fold less potent in [3H]-DA uptake inhibition than comparator: 7 vs 2, 26 vs 25; for fold more potent in [3H]-DA uptake inhibition than S-configured analogs: 18 and 19 vs 14 and 15
# Chain of VMAT2 (Q01827 whole entry): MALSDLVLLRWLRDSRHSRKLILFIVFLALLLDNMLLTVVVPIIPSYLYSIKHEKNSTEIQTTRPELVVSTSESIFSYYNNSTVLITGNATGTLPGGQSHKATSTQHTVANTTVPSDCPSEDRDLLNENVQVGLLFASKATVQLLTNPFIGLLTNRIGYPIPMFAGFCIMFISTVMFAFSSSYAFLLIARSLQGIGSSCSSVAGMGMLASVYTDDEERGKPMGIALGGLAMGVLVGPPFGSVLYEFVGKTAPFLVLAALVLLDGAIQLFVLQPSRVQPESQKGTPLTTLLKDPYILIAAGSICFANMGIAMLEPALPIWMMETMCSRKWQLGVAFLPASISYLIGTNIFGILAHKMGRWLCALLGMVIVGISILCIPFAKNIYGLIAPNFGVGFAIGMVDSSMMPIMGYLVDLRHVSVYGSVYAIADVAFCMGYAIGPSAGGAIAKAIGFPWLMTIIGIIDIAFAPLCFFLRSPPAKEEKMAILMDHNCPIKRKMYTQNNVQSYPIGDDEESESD
# [3] = molecular target: DTBZ binding site on VMAT2 (Rattus norvegicus, UniProt Q01827); experiment: [3H]DTBZ binding assay in rat brain synaptic vesicles; details: for fold less potent at DTBZ binding site than comparator: 7 vs 2, 26 vs 25
# Chain of DTBZ binding site on VMAT2 (Q01827 whole entry): as above
# water solubility = format: physicochemical; details: qualitative statement
structure (smiles),measurement,setting,value
"CN1[C@@H](CC(=O)c2ccccc2)CCC[C@H]1C[C@H](O)c1ccccc1 [Compound 1, lobeline]",affinity for α4β2* nAChRs,[1],high potency
"CN1[C@@H](CCc2ccccc2)CCC[C@H]1CCc1ccccc1 [Compound 2, cis-N-methyl-2,6-diphenethylpiperidine]",affinity for α4β2* nAChRs,[1],little affinity
same,effect on self-administration,[2],decreases methamphetamine self-administration; also recorded: does not itself support self-administration
"c1ccc(CC[C@H]2CCC[C@@H](CCc3ccccc3)N2)cc1 [Compound 3, reference compound]",fold more potent in inhibiting [3H]-DA uptake than in binding to the DTBZ binding site,VMAT2,about 100 fold
"c1ccc(CC[C@@H]2CC[C@H](CCc3ccccc3)N2)cc1 [Compound 6, cis-2,5-Di-(2-phenethyl)-pyrrolidine hydrochloride]",fold more potent in inhibiting [3H]-DA uptake than in binding to the DTBZ binding site,VMAT2,about 100 fold
"CN1[C@H](CCc2ccccc2)CC[C@@H]1CCc1ccccc1 [Compound 7, 1-Methyl-cis-2,5-di-(2-phenethyl)-pyrrolidine hydrochloride]",fold less potent at DTBZ binding site than comparator,[3],about 10 fold
same,fold less potent in [3H]-DA uptake inhibition than comparator,VMAT2,10 fold
same,fold more potent in inhibiting [3H]-DA uptake than in binding to the DTBZ binding site,VMAT2,about 30 fold
"c1ccc(CC[C@H]2CC[C@H](CCc3ccccc3)N2)cc1 [Compound 10, (2S,5S)-di-(2-phenethyl)-pyrrolidine hydrochloride]",fold more potent at DTBZ binding site than N-methyl derivative,[3]; 10 vs 11,about 10 fold
"OC[C@@H](c1ccccc1)N1[C@H](CCc2ccccc2)CC[C@@H]1CCc1ccccc1 [Compound 18, (2′R)-2-(2S,5R)-2,5-Di-(2-phenethyl)-tetrahydro-1H-1-pyrrolyl-2-phenylethan-1-ol]",fold more potent in [3H]-DA uptake inhibition than S-configured analogs,VMAT2,about 10 fold
"OC[C@@H](c1ccccc1)N1[C@@H](CCc2ccccc2)CC[C@@H]1CCc1ccccc1 [Compound 19, (2′R)-2-(2S,5S)-2,5-Di(2-phenethyl)-tetrahydro-1H-1-pyrrolyl-2-phenylethan-1-ol]",fold more potent in [3H]-DA uptake inhibition than S-configured analogs,VMAT2,about 10 fold
"c1ccc(C[C@H]2CC[C@@H](Cc3ccccc3)N2)cc1 [Compound 22, cis-2,5-Di(2-benzyl)-pyrrolidine hydrochloride]",water solubility,water solubility,water-soluble
"c1ccc(CCC[C@@H]2CC[C@H](CCCc3ccccc3)N2)cc1 [Compound 25, Cis-2,5-di(3-phenylpropyl)-pyrrolidine hydrochloride]",fold more potent in inhibiting [3H]-DA uptake than in binding to the DTBZ binding site,VMAT2,about 20 fold
"CN1[C@H](CCCc2ccccc2)CC[C@@H]1CCCc1ccccc1 [Compound 26, 1-Methyl-cis-2,5-di(3-phenylpropyl)-pyrrolidine hydrochloride]",fold less potent at DTBZ binding site than comparator,[3],10 fold
same,fold less potent in [3H]-DA uptake inhibition than comparator,VMAT2,about 10 fold
same,fold more potent in inhibiting [3H]-DA uptake than in binding to the DTBZ binding site,VMAT2,about 20 fold
